From EP4585588A1, “BENZIMIDAZOLE COMPOUND, AND PREPARATION METHOD THEREFOR AND USE THEREOF” (Suzhou Pharmavan Co., Ltd., priority 2022, dated 2024) come the findings set out here.

Experiment [1] concerns Models of Heart Failure due to Pressure Overload of Mice. In words: Pharmacodynamic test in mouse models of heart failure due to pressure overload (thoracic aorta ligation). The conditions noted are these: after four weeks of administration (nine weeks of modeling); for Ejection Fraction (Mean) of Heart: Table 6, model group 29.8%; for Ejection Fraction (Mean) of Heart / Ejection Fraction (Mean) of Ventriculus Sinister of Heart: 5 mg/kg intraperitoneal once a day for four consecutive weeks; for Ejection Fraction (Mean) of Ventriculus Sinister of Heart: Table 5, model group 28.6%; for effect on the cardiac contractile function (result in words): 5 mg/kg intraperitoneal once a day. The experiment is classed as in vivo, C57BL/6 mice. Here is the method:
1.1 Animals healthy C57BL/6 mice
Modeling by thoracic aorta ligation surgery: preoperative echocardiography was performed to exclude mice with abnormal cardiac functions; for mice with normal cardiac functions, anesthesia was performed, and the mice were anesthetized and then transferred into a small animal operating table and fixed; an open airway was established via endotracheal intubation, and anesthesia was maintained; taking the second rib as the center, the skin was cut along the sternum toward the first and third ribs to expose the connection between the second rib and the sternum; the second rib was cut to expose the aorta thoracic segment; the aortic arch was freed, a thin thread was inserted underneath, a thin needle was placed in parallel to the aortic arch for co-ligation; after ligation, the thin needle was withdrawn to observe the condition of the mice, and the mice were sutured layer by layer after stabilization; the mice were placed on the thermal insulation pad to keep warm, and after waking up, the mice were put back into the cage for daily feeding according to the activity.
After five weeks of modeling, echocardiography was performed on the mice to determine the ejection fractions of the hearts of the mice. When the ejection fraction decreased by about 50%, the ejection fraction met the experimental requirements, and the administration experiment started. Animals were grouped randomly and administered according to the ultrasound data, the echocardiography was performed every two weeks until week 9 ended, and pathological section analysis was performed.
The results were expressed using mean±standard error, data analysis was performed using GraphPad Prism statistical software, and the comparison was analyzed using a t-test. P < 0.05 was determined that there was a difference with statistical significance, otherwise P was determined that there was no significant difference.

Experiment [2] concerns myosin heavy chain β (β-MHC). The conditions noted are these: 48 h, 10 µM.
Method: Separation and plating of cardiomyocytes of rats: a certain number of SPF suckling rats were taken and placed in a clean bench according to an actual requirement for the number of cells, thoracic cavities were opened by scissors, hearts were separated, and the hearts were cut into tissue fragments with sterilized surgical scissors; Collagenase Type II (manufacturer: Sigma, article No.: C2-28-100MG) was added to a D-HANKS balanced salt buffer to prepare a 5 µg/mL enzyme digestion solution, and the tissue fragments of hearts were continuously digested for three times in a 37 °C constant-temperature water bath box; about 2 mL of the enzyme digestion solution was added for the first time, a supernatant was discarded after digestion, centrifugation and precipitation of cardiomyocytes and tissue fragments, about 4 mL of the enzyme digestion solution was independently added for the second time and the third time to continue digestion, a supernatant was remained each time, DMEM containing 10% FBS with the same volume as the digestion solution in the supernatant was immediately added to neutralize digestive enzymes, the supernatants for the second time and the third time were combined and centrifuged, a supernatant was discarded, an appropriate amount of DMEM containing 10% FBS was added to resuspend the cardiomyocytes, the cardiomyocytes were inoculated in a 100 mm culture plate and subjected to differential adhesion in a constant-temperature cell incubator for 2 h, and a supernatant was taken for cell count.
A 24-well plate precoated with 1% gelatin was taken and plated at 1×10^5 cells/well, 500 µL of a 10% FBS+DMEM medium was contained in each well, and cells were cultured in a 37 °C constant-temperature cell incubator for 24 h. Different compounds were independently prepared into a 100 mM mother liquor with DMSO and gradient diluted with a 10% FBS+DMEM medium to prepare a 10 µM final solution of the compound containing 0.5% DMSO. The medium in the 24-well plate was discarded and replaced with a 500 µL/well medium containing a 10 µM compound, and three replicate wells and a negative control well were set for each compound. After 0.5 hours of drug action, PE (manufacturer: Meilun Biotechnology; article No.: MB1602) with a final concentration of 20 µM was added to each well, and no PE was added to the negative control wells; after 48 hours of PE action, sample detection was performed.
Expression levels of genes related to cardiomyocyte hypertrophy was analyzed via real-time quantitative PCR detection of mRNA level of atrial natriuretic peptide (ANP) and myosin heavy chain β (β-MHC). The steps include extraction of total RNA of cells, reverse transcription synthesis of cDNA and real-time quantitative PCR assay.
Based on real-time quantitative PCR detection of an mRNA level of ANP of cardiomyocytes, a drug with a potential of anti-cardiomyocyte hypertrophy was preliminarily screened and verified with an mRNA level of another hypertrophy gene β-MHC using a statistical method One-way ANOVA and statistical software GraphPad Prism.
For experiment [3], the system named is Primary cardiomyocytes of suckling rats. In words: Area measurement of cardiomyocytes after PE injury. The class given is cell-based. The conditions noted are these: for Cell Area Hypertrophy Multiple (Mean±Standard Deviation) Compared with Control Wells: 48 h, 10 µM; for cardiomyocyte area compared with the PE group (result in words): 10 µM compound, PE 20 µM for 48 hours. The method, then:
Primary cardiomyocytes of suckling rats were isolated and cultured and inoculated on a cell culture plate. A drug stock solution was taken and separately added to cell wells according to a certain dilution ratio, and a final concentration was 10 µM. After half hour of drug action, a phenylephrine (PE) stock solution was added, and a final concentration of PE was 20 µM. After 48 hours of PE action, cell samples were collected for real-time quantitative PCR assay or cell area measurement.
Separation and plating of cardiomyocytes of rats: a certain number of SPF suckling rats were taken and placed in a clean bench according to an actual requirement for the number of cells, thoracic cavities were opened by scissors, hearts were separated, and the hearts were cut into tissue fragments with sterilized surgical scissors; Collagenase Type II (manufacturer: Sigma, article No.: C2-28-100MG) was added to a D-HANKS balanced salt buffer to prepare a […] enzyme digestion solution, and the tissue fragments of hearts were continuously digested for three times in a 37 °C constant-temperature water bath box; about 2 mL of the enzyme digestion solution was added for the first time, a supernatant was discarded after digestion, centrifugation and precipitation of cardiomyocytes and tissue fragments, about 4 mL of the enzyme digestion solution was independently added for the second time and the third time to continue digestion, a supernatant was remained each time, DMEM containing 10% FBS with the same volume as the digestion solution in the supernatant was immediately added to neutralize digestive enzymes, the supernatants for the second time and the third time were combined and centrifuged, a supernatant was discarded, an appropriate amount of DMEM containing 10% FBS was added to resuspend the cardiomyocytes, the cardiomyocytes were inoculated in a 100 mm culture plate and subjected to differential adhesion in a constant-temperature cell incubator for 2 h, and a supernatant was taken for cell count.
Area measurement of cardiomyocytes of rats: a 24-well plate precoated with 1% gelatin was taken and plated at 1.0×10^3 cells/well, 500 µL of a 10% FBS+DMEM medium was contained in each well, and cells were cultured in a 37 °C constant-temperature cell incubator for 24 h; different compounds were independently prepared into a 100 mM mother liquor with DMSO and gradient diluted with a 10% FBS+DMEM medium to prepare a 10 µM final solution of the compound containing […]; the medium in the 24-well plate was discarded and replaced with a 500 µL/well medium containing a 10 µM compound, and three replicate wells and a negative control well were set for each compound; after 0.5 hours of drug action, PE (manufacturer: Meilun Biotechnology; article No.: MB1602) with a final concentration of 20 µM was added to each well, and no PE was added to the negative control wells; after 48 hours of PE action, at least five fields of view were randomly selected from each well under an inverted microscope (manufacturer: Nikon; model: Eclipse TS100), and the cell area data was calculated by Image J software; the area of the cells in the negative control wells was set to 1, the cell area hypertrophy multiples of the PE wells and each administration well were calculated separately, and statistical analysis was performed using the One-Way ANOVA method.
The cardiomyocyte area was directly measured and the differences between the groups were compared for verification. The cardiomyocytes were co-intervened with PE and drugs and placed under a microscope for direct observation, and images were taken. The cell area data was calculated using Image J software. […]

Regarding `Cc1nc2cc(-c3cc(F)cc(F)c3C(C)(C)O)ccc2[nH]1` [Formula II-2, 2-(2,4-difluoro-6-(2-methyl-1H-benzimidazol-5-yl)phenyl)propane-2-ol], the “Ejection Fraction (Mean) of Heart” value in experiment [1] is on record as 37.3%. The “Mean (real-time quantitative PCR validation results of cardiomyocyte β-MHC)” value in experiment [2] is 1.42. In addition, the “Cell Area Hypertrophy Multiple (Mean±Standard Deviation) Compared with Control Wells” value in experiment [3] is on record as 1.33±0.11.
Consider `Cc1nc2cc(-c3cc(F)ccc3O)ccc2[nH]1` [Formula I-1, 4-fluoro-2-(2-methyl-1H-benzimidazol-5-yl)phenol], for which the “Ejection Fraction (Mean) of Ventriculus Sinister of Heart” value in experiment [1] is reported as 37.2%. Besides, in experiment [2], the “Mean (real-time quantitative PCR validation results of cardiomyocyte β-MHC)” value came to 1.21. Further, the “Cell Area Hypertrophy Multiple (Mean±Standard Deviation) Compared with Control Wells” value in experiment [3] was determined as 1.42±0.16.
As to `Cc1nc2cc(-c3cc(F)cc(C#N)c3C(C)(C)O)ccc2[nH]1` [Formula II-3, 5-fluoro-2-(2-hydroxypropan-2-yl)-3-(2-methyl-1H-benzimidazol-5-yl)benzonitrile], the “Ejection Fraction (Mean) of Heart” value in experiment [1] turned out to be 40.1%. Also, in experiment [2], the “Mean (real-time quantitative PCR validation results of cardiomyocyte β-MHC)” value was determined as 1.28. Moreover, in experiment [3], the “Cell Area Hypertrophy Multiple (Mean±Standard Deviation) Compared with Control Wells” value turned out to be 1.28±0.10.
The matching figures for `OCc1ccc(F)cc1-c1ccc2[nH]cnc2c1` [Formula II-121, (4-fluoro-2-(1H-benzimidazol-5-yl)phenyl)methanol]: 42.2%, 1.25 and 1.48±0.09.
On to `Cc1nc2cc(-c3cc(C(=O)N(C)C)ccc3C(C)(C)O)ccc2[nH]1` [Formula II-7, 4-(2-hydroxypropan-2-yl)-N,N-dimethyl-3-(2-methyl-1H-benzimidazol-5-yl)benzamide], for which the “Ejection Fraction (Mean) of Heart” value in experiment [1] is recorded as 39.6%. Besides, in experiment [2], the “Mean (real-time quantitative PCR validation results of cardiomyocyte β-MHC)” value amounted to 1.15. Further, in experiment [3], the “Cell Area Hypertrophy Multiple (Mean±Standard Deviation) Compared with Control Wells” value is listed as 1.14±0.14.
For `Cc1nc2cc(-c3cc(C(N)=O)ccc3O)ccc2[nH]1` [Formula I-4, 4-hydroxy-3-(2-methyl-1H-benzimidazol-5-yl)benzamide], in experiment [1], the “Ejection Fraction (Mean) of Ventriculus Sinister of Heart” value is on record as 35.4%. Besides, the “Mean (real-time quantitative PCR validation results of cardiomyocyte β-MHC)” value in experiment [2] is given as 1.15. In addition, in experiment [3], the “Cell Area Hypertrophy Multiple (Mean±Standard Deviation) Compared with Control Wells” value amounted to 1.27±0.34.
Regarding `CCCc1cc(C#N)c(CO)c(-c2ccc3[nH]cnc3c2)c1` [Formula II-144, 2-(hydroxymethyl)-3-(1H-benzimidazol-5-yl)-5-propylbenzonitrile], the “Ejection Fraction (Mean) of Heart” value in experiment [1] was 41.5%. In addition, the “Mean (real-time quantitative PCR validation results of cardiomyocyte β-MHC)” value in experiment [2] is given as 1.39. Also, in experiment [3], the “Cell Area Hypertrophy Multiple (Mean±Standard Deviation) Compared with Control Wells” value came to 1.12±0.13.
On to `Cc1nc2cc(-c3cc(C(N)=O)cc(F)c3O)ccc2[nH]1` [Formula I-5, 3-fluoro-4-hydroxy-5-(2-methyl-1H-benzimidazol-5-yl)benzamide], for which the “Ejection Fraction (Mean) of Ventriculus Sinister of Heart” value in experiment [1] came to 39.7%. Besides, in experiment [2], the “Mean (real-time quantitative PCR validation results of cardiomyocyte β-MHC)” value is reported as 1.25. For the same compound, the “Cell Area Hypertrophy Multiple (Mean±Standard Deviation) Compared with Control Wells” value in experiment [3] was determined as 1.50±0.15.
On to `Cn1cnc2cc(-c3cc(F)ccc3O)ccc21` [Formula I-24-B, 4-fluoro-2-(1-methyl-1H-benzimidazol-5-yl)phenol, reference compound], for which, in experiment [1], the “Ejection Fraction (Mean) of Ventriculus Sinister of Heart” value amounted to 27.2% and the “effect on the cardiac contractile function (result in words)” value (from here on “effect”) was “no apparent improvement effect”. Further, in experiment [3], the “cardiomyocyte area compared with the PE group (result in words)” value is listed as “no apparent improvement effect” and the “Cell Area Hypertrophy Multiple (Mean±Standard Deviation) Compared with Control Wells” value came out at 1.81±0.20.
Regarding `Oc1ccc(F)cc1-c1ccc2[nH]cnc2c1` [Formula I-24, 4-fluoro-2-(1H-benzimidazol-5-yl)phenol], in experiment [1], the “Ejection Fraction (Mean) of Ventriculus Sinister of Heart” value was 40.0%. Further, the “Cell Area Hypertrophy Multiple (Mean±Standard Deviation) Compared with Control Wells” value in experiment [3] was 1.36±0.12.
Consider `Cc1nc2cc(-c3cc(C(=O)O)ccc3O)ccc2[nH]1` [Formula I-48, 4-hydroxy-3-(2-methyl-1H-benzimidazol-5-yl)benzoic acid], for which the “Ejection Fraction (Mean) of Ventriculus Sinister of Heart” value in experiment [1] is given as 37.2%. In addition, the “Mean (real-time quantitative PCR validation results of cardiomyocyte β-MHC)” value in experiment [2] stood at 1.58. Besides, in experiment [3], the “Cell Area Hypertrophy Multiple (Mean±Standard Deviation) Compared with Control Wells” value was 1.06±0.08.
Consider `CCCc1cc(C#N)c(C(C)O)c(-c2ccc3[nH]cnc3c2)c1` (stereo not drawn) [Formula II-96, 2-(1-hydroxyethyl)-3-(1H-benzimidazol-5-yl)-5-propylbenzonitrile], for which the “Ejection Fraction (Mean) of Heart” value in experiment [1] worked out at 36.8%. Further, the “Mean (real-time quantitative PCR validation results of cardiomyocyte β-MHC)” value in experiment [2] was found to be 1.38. In addition, the “Cell Area Hypertrophy Multiple (Mean±Standard Deviation) Compared with Control Wells” value in experiment [3] was 1.49±0.10.
In the case of `CC(O)c1ccc(F)cc1-c1ccc2[nH]cnc2c1` (stereo not drawn) [Formula II-73, 1-(4-fluoro-2-(1H-benzimidazol-5-yl)phenyl)ethane-1-ol], the “Ejection Fraction (Mean) of Heart” value in experiment [1] amounted to 40.5%. Besides, the “Cell Area Hypertrophy Multiple (Mean±Standard Deviation) Compared with Control Wells” value in experiment [3] is 1.17±0.16.
For the compound `Cc1nc2cc(-c3cc(F)cc(C#N)c3O)ccc2[nH]1` [Formula I-3, 5-fluoro-2-hydroxy-3-(2-methyl-1H-benzimidazol-5-yl)benzonitrile], the “Ejection Fraction (Mean) of Ventriculus Sinister of Heart” value in experiment [1] stood at 37.8%. The “Mean (real-time quantitative PCR validation results of cardiomyocyte β-MHC)” value in experiment [2] is given as 1.24. In experiment [3], the “Cell Area Hypertrophy Multiple (Mean±Standard Deviation) Compared with Control Wells” value worked out at 1.07±0.15.
For `Cc1nc2cc(-c3cc(F)ccc3C(C)(C)O)ccc2[nH]1` [Formula II-1, 2-(4-fluoro-2-(2-methyl-1H-benzimidazol-5-yl)phenyl)propane-2-ol], in experiment [1], the “Ejection Fraction (Mean) of Heart” value was found to be 38.7%. Moreover, the “Mean (real-time quantitative PCR validation results of cardiomyocyte β-MHC)” value in experiment [2] amounted to 1.32. Further, the “Cell Area Hypertrophy Multiple (Mean±Standard Deviation) Compared with Control Wells” value in experiment [3] is on record as 1.39±0.30.
For the compound `Oc1ccccc1-c1cc(F)c2[nH]cnc2c1` [Formula I-24-C, 2-(7-fluoro-1H-benzimidazol-5-yl)phenol, reference compound], in experiment [1], the “Ejection Fraction (Mean) of Ventriculus Sinister of Heart” value was determined as 30.7% and the “effect” value is “no apparent improvement effect”. Further, in experiment [3], the “cardiomyocyte area compared with the PE group (result in words)” value is given as “no apparent improvement effect” and the “Cell Area Hypertrophy Multiple (Mean±Standard Deviation) Compared with Control Wells” value was determined as 1.95±0.08.
Take `CCCc1cc(C#N)c(C(C)(C)O)c(-c2ccc3nc[nH]c3c2)c1` [Formula II-48]: in experiment [1], the “Ejection Fraction (Mean) of Heart” value is 41.4%. Moreover, the “Cell Area Hypertrophy Multiple (Mean±Standard Deviation) Compared with Control Wells” value in experiment [3] is recorded as 1.07±0.20.
With `COc1ccc(F)cc1-c1ccc2[nH]cnc2c1` [Formula I-24-A, 5-(5-fluoro-2-methoxyphenyl)-1H-benzimidazole, reference compound], in experiment [1], the “Ejection Fraction (Mean) of Ventriculus Sinister of Heart” value amounted to 29.4% and the “effect” value is “no apparent improvement effect”. In addition, in experiment [3], the “cardiomyocyte area compared with the PE group (result in words)” value was “no apparent improvement effect” and the “Cell Area Hypertrophy Multiple (Mean±Standard Deviation) Compared with Control Wells” value was 1.77±0.11.
